Experimental data: ChEMBL document CHEMBL1151031, “Lipophilic bis-arylsulfonates as inhibitors of the CD4-gp120 interaction” (Bioorg Med Chem Lett, 1996)

Legend:
[1] = Inhibition of gp120 binding to CEM cells in vitro.; format: functional, cell-based; details: ccrf-cem
[2] = Inhibition of HIV gp120 binding to CD4 receptor using ELISA assay; set-up: species or system Human immunodeficiency virus 1
CCRF-CEM [3] = experiment: Compound was evaluated for the cytotoxicity against CEM cells; format: functional; details: Homo sapiens, read-out: CD50 (the source's name)
CCRF-CEM [4] = experiment: Compound was evaluated for the inhibition of gp120 binding to monoclonal antibodies in CEM cells; Flat dose response; format: functional, cell-based, Homo sapiens

| Structure (SMILES) | IC50 [1] [µM] | IC50 [2] [µM] | IC50 (CCRF-CEM [4]) | CC50 (CCRF-CEM [3]) [µM] |
| --- | --- | --- | --- | --- |
| CCCCCCCC1(C)CCc2c(C)c(OCCC=C(c3cccc4cc(S(=O)(=O)O)ccc34)c3cccc4cc(S(=O)(=O)O)ccc34)c(C)c(C)c2O1 (centres undefined) | 23 | 41 | – | – |
| CCCCC/C=C/C/C=C/CCCCCCC=C(c1cccc2cc(S(=O)(=O)O)ccc12)c1cccc2cc(S(=O)(=O)O)ccc12 | – | 56 | – | – |
| CC(C)CCCC(C)[C@H]1CC[C@H]2[C@@H]3CCC4CC(CCC=C(c5cccc6ccc(S(=O)(=O)O)cc56)c5cccc6ccc(S(=O)(=O)O)cc56)CC[C@]4(C)[C@H]3CC[C@]12C (some centres undefined) | 7 | 10 | – | 120 |
| CC(C)CCCC(C)[C@H]1CC[C@H]2[C@@H]3CCC4C[C@@H](CCC=C(c5cc(Cl)c(O)c(C(=O)O)c5)c5cc(Cl)c(O)c(C(=O)O)c5)CC[C@]4(C)[C@H]3CC[C@]12C (some centres undefined) | 5 | 18 | – | – |
| CC(C)CCCC(C)[C@H]1CC[C@H]2[C@@H]3CCC4CC(OCCC=C(c5cccc6cc(S(=O)(=O)O)ccc56)c5cccc6cc(S(=O)(=O)O)ccc56)CC[C@]4(C)[C@H]3CC[C@]12C (some centres undefined) | 6 | 31 | – | – |
| CC(C)CCCC(C)[C@H]1CC[C@H]2[C@@H]3CCC4CC(C=C(c5cccc6ccc(S(=O)(=O)O)cc56)c5cccc6ccc(S(=O)(=O)O)cc56)CC[C@]4(C)[C@H]3CC[C@]12C (some centres undefined) | 25 | 10 | – | 125 |
| CC(C)CCCC(C)[C@H]1CC[C@H]2[C@@H]3CCC4CC(C=C(c5ccc(S(=O)(=O)O)cc5)c5ccc(S(=O)(=O)O)cc5)CC[C@]4(C)[C@H]3CC[C@]12C (some centres undefined) | 39 | 10 | – | 56 |
| CC(C)CCCC(C)[C@H]1CC[C@H]2[C@@H]3CCC4CC(C=C(c5cccc(S(=O)(=O)O)c5)c5cccc(S(=O)(=O)O)c5)CC[C@]4(C)[C@H]3CC[C@]12C (some centres undefined) | – | 62 | Flat dose response | – |
| CC(C)CCCC(C)[C@H]1CC[C@H]2[C@@H]3CCC4CC(CCC=C(c5ccc(S(=O)(=O)O)cc5)c5ccc(S(=O)(=O)O)cc5)CC[C@]4(C)[C@H]3CC[C@]12C (some centres undefined) | 47 | 13 | – | 135 |
| CCCCCCCCCCCCCCCCC=C(c1cccc2cc(S(=O)(=O)O)ccc12)c1cccc2cc(S(=O)(=O)O)ccc12 | – | 192 | – | – |
| CCCCCCCCCCCCCCCCC1(C)CCc2c(C)c(OCCC=C(c3cccc4cc(S(=O)(=O)O)ccc34)c3cccc4cc(S(=O)(=O)O)ccc34)c(C)c(C)c2O1 (centres undefined) | 5 | 25 | – | – |
| CC(C)CCCC(C)[C@H]1CC[C@H]2[C@@H]3CCC4CC(CCC=C(c5cccc6cc(S(=O)(=O)O)ccc56)c5cccc6cc(S(=O)(=O)O)ccc56)CC[C@]4(C)[C@H]3CC[C@]12C (stereo in doubt) | 9 | 18 | – | – |

Further lines, with some results ahead:

| IC50 [1] [µM] | IC50 [2] [µM] | IC50 (CCRF-CEM [4]) | Structure (SMILES) | CC50 (CCRF-CEM [3]) [µM] |
| --- | --- | --- | --- | --- |
| 150 | > 400 | – | O=S(=O)(O)c1ccc2c(C(=CC3CCCCCCCCC3)c3cccc4cc(S(=O)(=O)O)ccc34)cccc2c1 | – |
| > 170 | > 350 | – | O=S(=O)(O)c1ccc2c(C(=CCCc3ccc4ccccc4c3)c3cccc4cc(S(=O)(=O)O)ccc34)cccc2c1 | – |
| 35 | 107 | – | C[C@]12CCC(C=C(c3cccc4cc(S(=O)(=O)O)ccc34)c3cccc4cc(S(=O)(=O)O)ccc34)CC1CC[C@@H]1[C@@H]2CC[C@]2(C)C(=O)CC[C@@H]12 (some centres undefined) | – |
| 17 | 26 | – | C[C@@]12CCC[C@H]1[C@@H]1CCC3CC(C=C(c4cccc5cc(S(=O)(=O)O)ccc45)c4cccc5cc(S(=O)(=O)O)ccc45)CC[C@]3(C)[C@H]1CC2 (some centres undefined) | – |
| 13 | 26 | – | CC(C)CCCC(C)[C@H]1CC[C@H]2[C@@H]3CC[C@@H]4CC(C=C(c5cccc6cc(S(=O)(=O)O)ccc56)c5cccc6cc(S(=O)(=O)O)ccc56)CC[C@]4(C)[C@H]3CC[C@]12C (some centres undefined) | – |
| 24 | 83 | – | C[C@]12CC[C@H]3[C@@H](CCC4CC(C=C(c5cccc6cc(S(=O)(=O)O)ccc56)c5cccc6cc(S(=O)(=O)O)ccc56)CC[C@@]43C)[C@@H]1CC[C@@H]2O (some centres undefined) | – |
| 6 | 16 | – | CC(C)CCCC(C)[C@H]1CC[C@H]2[C@@H]3CCC4CC(C=C(c5cccc6cc(S(=O)(=O)O)ccc56)c5cccc6cc(S(=O)(=O)O)ccc56)CC[C@]4(C)[C@H]3CC[C@]12C (some centres undefined) | – |
| 12 | 33 | – | C=CCO[C@H]1CC[C@H]2[C@@H]3CCC4CC(C=C(c5cccc6cc(S(=O)(=O)O)ccc56)c5cccc6cc(S(=O)(=O)O)ccc56)CC[C@]4(C)[C@H]3CC[C@]12C (some centres undefined) | 100 |
| 52 | 130 | – | O=S(=O)(O)c1ccc2c(C(=CC3CCCCCCCCCCCCCC3)c3cccc4cc(S(=O)(=O)O)ccc34)cccc2c1 | – |
| 49 | 292 | – | O=S(=O)(O)c1ccc2c(C(=CCCc3ccc4c(c3)CCc3ccccc3-4)c3cccc4cc(S(=O)(=O)O)ccc34)cccc2c1 | – |
| 7 | 9 | – | CC(C)CCCC(C)[C@H]1CC[C@H]2[C@@H]3CCC4CC(CCC=C(c5cccc6cc(S(=O)(=O)O)ccc56)c5cccc6cc(S(=O)(=O)O)ccc56)CC[C@]4(C)[C@H]3CC[C@]12C (stereo in doubt; 1401) | – |
